Data reported in patent US11773078B2, “Furin inhibitors” (Glaxosmithkline Intellectual Property Development Limited, priority 2018, dated 2023).
Counter-ions that a name gives are not always drawn.

Assays:
[1] = target: T1, furin (endogenous protease) in U20S cells (Homo sapiens, UniProt P09958); experiment: Furin cell-based assay (image-based, Golgi-targeted GFP with BMP10 furin/PCSK cleavage site); details: 24-hour incubation, read-out: furin golgi cell pXC50 (converted);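 also: Read-out is mean GFP fluorescence of Golgi puncta per cell by high-content imaging, retained when furin inhibited, over an eleven-point 0.00017–10 µM series, four-parameter fit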
T1 construct: the endogenous protease cleaves GFP; endogenous in cells; host or cells: U2OS cells transduced with a BacMam reporter

[2] = target: T2, Furin (108-574-Tev-Flag-His) enzyme (Homo sapiens, UniProt P09958); experiment: Furin enzyme assay; type: biochemical
T2 construct: Furin (108-574-Tev-Flag-His) enzyme was expressed and purified from CHO cells; TEV cleavage site (C); FLAG (C); His (C); made in house; host or cells: CHO cells
Method: Reactions were performed in black 384-well polystyrene low volume plates (Greiner). Furin (108-574-Tev-Flag-His) enzyme was expressed and purified from CHO cells. Compounds of the invention were dissolved in DMSO (1.0 mM) and serially diluted 1 to 3 with DMSO through eleven dilutions to provide a final compound concentration range from 0.00017 to 10 μM. 0.05 μL of each concentration was transferred to the corresponding well of an assay plate, and then 5 μL of 40 pM furin enzyme in assay buffer (100 mM HEPES pH7.5, 1 mM CaCl2 and 0.005% Triton X-100) was added using a Multidrop Combi (Thermo) to the compound plates, and mixed by inversion. […] The plates were centrifuged at 500×g for 1 minute and incubated at room temperature for two hours. Enzyme inhibition is then quantified using an Envision instrument (PerkinElmer).
Data were analyzed using AbaseXE 7.3, utilizing a four-parameter curve fit equation. The following values were used to define limits and/or constraints for each of the four parameters: • Minimum—limit −10 to 10 • Maximum—90 to 110 • Slope—limit 0.5 to 2.0 • pXC50 confidence interval—10
Raw counts obtained from the respective plate reader (Perkin Elmer) were captured for data analysis. Curves were generated using the equation: Y=A+[(B−A)/(1+(10^C/x)^D)] • where: A=minimum response • B=maximum response • C=log 10*XC50 • D=slope factor • x=log 10 compound concentration [M]
The results were recorded as pXC50 values (−C in the above equation)

T1 sequence (P09958 108-794): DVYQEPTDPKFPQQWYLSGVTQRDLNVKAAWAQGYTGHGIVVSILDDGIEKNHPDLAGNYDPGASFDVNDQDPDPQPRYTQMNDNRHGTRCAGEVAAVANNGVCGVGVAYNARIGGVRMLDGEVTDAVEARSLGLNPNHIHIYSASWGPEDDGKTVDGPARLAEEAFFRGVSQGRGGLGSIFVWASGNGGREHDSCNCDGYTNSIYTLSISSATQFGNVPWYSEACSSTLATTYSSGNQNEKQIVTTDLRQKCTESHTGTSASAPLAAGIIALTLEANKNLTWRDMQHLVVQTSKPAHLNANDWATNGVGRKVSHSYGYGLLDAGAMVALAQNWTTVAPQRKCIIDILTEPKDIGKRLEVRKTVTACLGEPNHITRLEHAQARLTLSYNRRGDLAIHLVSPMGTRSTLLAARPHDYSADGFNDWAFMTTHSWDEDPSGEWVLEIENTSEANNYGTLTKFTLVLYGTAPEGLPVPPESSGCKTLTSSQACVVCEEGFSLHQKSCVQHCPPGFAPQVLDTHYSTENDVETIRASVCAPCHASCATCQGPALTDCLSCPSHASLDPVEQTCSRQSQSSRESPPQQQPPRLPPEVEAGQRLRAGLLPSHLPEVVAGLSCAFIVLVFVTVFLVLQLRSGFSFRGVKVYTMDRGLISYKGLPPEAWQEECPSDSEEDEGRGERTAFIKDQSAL
T2 sequence (P09958 108-574): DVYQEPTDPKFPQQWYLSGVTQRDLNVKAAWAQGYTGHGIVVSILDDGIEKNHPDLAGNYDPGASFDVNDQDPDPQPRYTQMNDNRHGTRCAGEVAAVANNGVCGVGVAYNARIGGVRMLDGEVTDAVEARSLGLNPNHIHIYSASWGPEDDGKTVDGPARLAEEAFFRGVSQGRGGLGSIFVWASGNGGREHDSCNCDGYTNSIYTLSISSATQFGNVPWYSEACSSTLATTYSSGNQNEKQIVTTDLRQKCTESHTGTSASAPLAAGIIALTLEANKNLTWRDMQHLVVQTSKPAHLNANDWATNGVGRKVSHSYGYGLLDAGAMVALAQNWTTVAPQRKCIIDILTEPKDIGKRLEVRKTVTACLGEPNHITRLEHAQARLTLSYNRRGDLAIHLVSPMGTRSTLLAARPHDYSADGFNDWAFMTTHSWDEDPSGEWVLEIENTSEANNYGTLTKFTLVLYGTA

| EC50 [1] [nM] | furin enzyme pIC50 [2] | Compound |
| --- | --- | --- |
| 3.16 | 8.8 | CC(=O)NCC1CCN(Cc2cc(Oc3ccc(N4CCN(CC5(O)CC5)CC4)nc3)nc(-c3cc(Cl)cc(Cl)c3)c2)CC1 [Example 35, N-((1-((2-(3,5-Dichlorophenyl)-6-((6-(4-((1-hydroxycyclopropyl)methyl)piperazin-1-yl)pyridin-3-yl)oxy)pyridin-4-yl)methyl)piperidin-4-yl)methyl)acetamide] |
| 5.01 | 9 | CCNC(=O)CC1CCN(Cc2cc(Oc3ccc(N4CCN(CCCS(C)(=O)=O)CC4)nc3)nc(-c3cc(Cl)cc(Cl)c3)c2)CC1 [Example 36, 2-(1-((2-(3,5-Dichlorophenyl)-6-((6-(4-(3-(methylsulfonyl)propyl)piperazin-1-yl)pyridin-3-yl)oxy)pyridin-4-yl)methyl)piperidin-4-yl)-N-ethylacetamide] |
| 126 | 9 | NS(=O)(=O)CC1CCN(Cc2cc(Oc3ccc(N4CCN(CCC(=O)O)CC4)nc3)nc(-c3cc(Cl)cc(Cl)c3)c2)CC1 [Example 38, 3-(4-(5-((6-(3,5-Dichlorophenyl)-4-((4-(sulfamoylmethyl)piperidin-1-yl)methyl)pyridin-2-yl)oxy)pyridin-2-yl)piperazin-1-yl)propanoic acid] |
| 79.4 | 8.3 | CS(=O)(=O)CC1CCN(Cc2cc(Oc3ccc(N4CCN(CCC(=O)O)CC4)nc3)nc(-c3cc(Cl)cc(Cl)c3)c2)CC1 [Example 39, 3-(4-(5-((6-(3,5-Dichlorophenyl)-4-((4-((methylsulfonyl)methyl)piperidin-1-yl)methyl)pyridin-2-yl)oxy)pyridin-2-yl)piperazin-1-yl)propanoic acid] |
| 10 | 7.6 | CNC(=O)NCC1CCN(Cc2cc(Oc3ccc(N4CCN(CCO)CC4)nc3)nc(-c3cc(Cl)cc(Cl)c3)c2)CC1 [Example 40, 1-((1-((2-(3,5-Dichlorophenyl)-6-((6-(4-(2-hydroxyethyl)piperazin-1-yl)pyridin-3-yl)oxy)pyridin-4-yl)methyl)piperidin-4-yl)methyl)-3-methylurea] |
| 25.1 | 9.5 | CS(=O)(=O)NCC1CCN(Cc2cc(Oc3ccc(N4CCN(CCC(=O)O)CC4)nc3)nc(-c3cc(Cl)cc(Cl)c3)c2)CC1 [Example 44] |
| 3.98 | 8.9 | CNC(=O)NCC1CCN(Cc2cc(Oc3cnc(N4CCN(CCO)CC4)nc3)nc(-c3cc(Cl)cc(Cl)c3)c2)CC1 [Example 47, 1-((1-((2-(3,5-Dichlorophenyl)-6-((2-(4-(2-hydroxyethyl)piperazin-1-yl)pyrimidin-5-yl)oxy)pyridin-4-yl)methyl)piperidin-4-yl)methyl)-3-methylurea, 4 hydrochloride] |
| 2.51 | 9.4 | CNC(=O)NCC1CCN(Cc2cc(Oc3cnc(N4CCN(CCCS(N)(=O)=O)CC4)nc3)nc(-c3cc(Cl)cc(Cl)c3)c2)CC1 [Example 48, 3-((4-(5-((6-(3,5-Dichlorophenyl)-4-((4-((3-methylureidolmethyl)piperidin-1-yl)methyl)pyridin-2-yl)oxy)pyrimidin-2-yl)piperazin-1-yl)propane-1-sulfonamide. 4 hydrochloride] |
| 1.26 | 9.8 | CN1CCN(c2ncc(Oc3cc(CN4CCC(CCO)CC4)cc(-c4cc(Cl)cc(Cl)c4)n3)cn2)CC1 [Example 52, 2-(1-((2-(3,5-Dichlorophenyl)-6-((2-(4-methylpiperazin-1-yl)pyrimidin-5-yl)oxy)pyridin-4-yl)methyl)piperidin-4-yl)ethanol] |
| 251 | 8.2 | NC(=O)OCCN1CCN(Cc2cc(Oc3ccc(N4CCN(CCC(=O)O)CC4)nc3)nc(-c3cc(Cl)cc(Cl)c3)c2)CC1 [Example 55, 3-(4-(5-((4-((4-(2-(carbamoyloxy)ethyl)piperazin-1-yl)methyl)-6-(3,5-dichlorophenyl)pyridin-2-yl)oxy)pyridin-2-yl)piperazin-1-yl)propanoic acid] |

Further lines, the molecule ahead of its results:

| Compound | EC50 [1] [nM] | furin enzyme pIC50 [2] |
| --- | --- | --- |
| CNCc1cc(Oc2cnc(N3CCN(CCCS(C)(=O)=O)CC3)nc2)nc(-c2cc(Cl)cc(Cl)c2)c1 [Example 37, 1-(2-(3,5-Dichlorophenyl)-6-((2-(4-(3-(methylsulfonyl)propyl)piperazin-1-yl)pyrimidin-5-yl)oxy)pyridin-4-yl)-N-methylmethanamine] | 12.6 | 8.5 |
| CC(=O)NCC1CCN(Cc2cc(Oc3ccc(N)cc3)cc(-c3cc(Cl)cc(Cl)c3)c2)CC1 [Example 42, N-((1-((5-(4-Aminophenoxy)-3′,5′-dichloro-[1,1′-biphenyl]-3-yl)methyl)piperidin-4-yl)methyl)acetamide] | 316 | 7.7 |
| CC(=O)NCC1CCN(Cc2cc(Oc3cnc(N)c(F)c3)cc(-c3cc(Cl)cc(Cl)c3)c2)CC1 [Example 46, N-((1-((5-((6-Amino-5-fluoropyridin-3-yl)oxy)-3′,5′-dichloro-[1,1′-biphenyl]-3-yl)methyl)piperidin-4-yl)methyl)acetamide, 2 hydrochloride] | 501 | 7 |
| COC(=O)NCC1CCN(Cc2cc(Oc3cnc(N4CCNCC4)nc3)nc(-c3cc(Cl)cc(Cl)c3)c2)CC1 [Example 49, Methyl((1-((2-(3,5-dichlorophenyl)-6-((2-(piperazin-1-yl)pyrimidin-5-yl)oxy)pyridin-4-yl)methyl)piperidin-4-yl)methyl)carbamate, 4 hydrochloride] | 20 | 9.1 |
| CNCc1cc(Oc2ccc(N3CCN(CCC(=O)O)CC3)nc2)nc(-c2cc(Cl)cc(Cl)c2)c1 [Example 50, 3-(4-(5-((6-(3,5-Dichlorophenyl)-4-((methylamino)methyl)pyridin-2-yl)oxy)pyridin-2-yl)piperazin-1-yl)propanoic acid, 4 hydrochloride] | 126 | 8.1 |
| COC(=O)NCC1(F)CCN(Cc2cc(Oc3cnc(N4CCN(CCC(=O)O)CC4)nc3)nc(-c3cc(Cl)cc(Cl)c3)c2)CC1 [Example 51, 3-((4-(5-((6-(3,5-Dichlorophenyl)-4-((4-fluoro-4-(((methoxycarbonyl)amino)methyl)piperidin-1-yl)methyl)pyridin-2-yl)oxy)pyrimidin-2-yl)piperazin-1-yl)propanoic acid, 4 hydrochloride] | 158 | 8.2 |
| CN1CCN(c2ncc(Oc3cc(CN4CCC(OCC(=O)O)CC4)cc(-c4cc(Cl)cc(Cl)c4)n3)cn2)CC1 [Example 53, 2-((1-((2-(3,5-Dichlorophenyl)-6-((2-(4-methylpiperazin-1-yl)pyrimidin-5-yl)oxy)pyridin-4-yl)methyl)piperidin-4-yl)oxy)acetic acid, 4 hydrochloride] | 15.8 | 8.7 |
| NC(=O)OCCN1CCN(Cc2cc(Oc3cnc(N4CCN(CCC(=O)O)CC4)nc3)nc(-c3cc(Cl)cc(Cl)c3)c2)CC1 [Example 54, 3-(4-(5-((4-((4-(2-(Carbamoyloxy)ethyl)piperazin-1-yl)methyl)-6-(3,5-dichlorophenyl)pyridin-2-yl)oxy)pyrimidin-2-yl)piperazin-1-yl)propanoic acid, 5 hydrochloride] | 158 | 8.2 |
